Measurements reported in patent publication US8563542B2 (Cyclacel Limited, priority 2007, dated 2013).
Where two headings read alike, the source gives them in different places.

Molecular target: PLK1 (Homo sapiens, UniProt P53350)
Assay: PLK1 protein kinase assay (CDC25C phosphorylation, [γ-32P]-ATP)
Assay type: biochemical
Details: for IC50: read-out: PLK1 IC50
[1] = Table 2, PLK1 IC50, class symbols

PLK1, sequence (P53350 whole entry): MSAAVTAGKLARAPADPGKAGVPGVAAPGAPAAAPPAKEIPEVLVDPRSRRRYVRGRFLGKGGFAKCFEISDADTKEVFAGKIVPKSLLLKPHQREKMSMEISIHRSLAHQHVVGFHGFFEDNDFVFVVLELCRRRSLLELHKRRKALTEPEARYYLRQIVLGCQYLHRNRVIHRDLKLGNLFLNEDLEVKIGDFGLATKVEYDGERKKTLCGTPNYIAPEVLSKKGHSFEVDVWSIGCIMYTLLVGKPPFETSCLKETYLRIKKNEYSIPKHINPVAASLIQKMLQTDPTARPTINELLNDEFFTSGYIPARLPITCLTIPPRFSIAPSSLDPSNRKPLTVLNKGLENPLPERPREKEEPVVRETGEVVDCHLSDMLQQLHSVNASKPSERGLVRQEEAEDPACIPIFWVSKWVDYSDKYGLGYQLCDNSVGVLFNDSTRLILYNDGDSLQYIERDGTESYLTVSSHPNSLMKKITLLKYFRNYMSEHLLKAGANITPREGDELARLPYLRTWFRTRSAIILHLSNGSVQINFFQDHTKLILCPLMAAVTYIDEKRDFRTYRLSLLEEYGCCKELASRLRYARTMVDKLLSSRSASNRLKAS

**Q.** With `COc1cc(C(=O)NC2CN3CCC2CC3)ccc1Nc1ncc2c(n1)N(C1CCCC1)CC1(CC1)C(=O)N2C` (racemic) [Compound 186, (±)-4-(9′-cyclopentyl-5′-methyl-6′-oxo-5′,6′,8′,9′-tetrahydrospiro[cyclopropane-1,7′-pyrimido[4,5-b][1,4]diazepine]-2′-ylamino)-3-methoxy-N-(quinuclidin-3-yl)benzamide] as the compound, how does the IC50 [1] read?
**A.** < 100 nM

**Q.** What about the IC50 (Table 3) of the same compound?
**A.** < 100 nM

**Q.** `COc1cc(C(=O)NC2CN3CCC2CC3)ccc1Nc1ncc2c(n1)N(C1CCCC1)CC(C)(C)C(=O)N2C` (racemic) [Compound 194, (±)-4-(9-cyclopentyl-5,7,7-trimethyl-6-oxo-6,7,8,9-tetrahydro-5H-pyrimido[4,5-b][1,4]diazepin-2-ylamino)-3-methoxy-N-(quinuclidin-3-yl)benzamide] was tested. Which IC50 [1] did it give?
**A.** < 100 nM

**Q.** And the IC50 (Table 3)?
**A.** < 100 nM

**Q.** `COc1cc(C(=O)NN2CCN(C)CC2)ccc1Nc1ncc2c(n1)N(C1CCCC1)CC(C)(C)C(=O)N2C` [Compound 195, 4-(9-Cyclopentyl-5,7,7-trimethyl-6-oxo-6,7,8,9-tetrahydro-5H-pyrimido[4,5-b][1,4]diazepin-2-ylamino)-3-methoxy-N-(4-methyl-piperazin-1-yl)-benzamide] was tested. Which IC50 [1] did it give?
**A.** < 100 nM

**Q.** And the IC50 (Table 3)?
**A.** < 100 nM

**Q.** What does the source list for `COc1cc(C(=O)NN2CCN(C)CC2)ccc1Nc1ncc2c(n1)N(C1CCCC1)CC1(CCC1)C(=O)N2C` [Compound 221, 4-(9′-cyclopentyl-5′-methyl-6′-oxo-5′,6′,8′,9′-tetrahydrospiro[cyclobutane-1,7′-pyrimido[4,5-b][1,4]diazepine]-2′-ylamino)-3-methoxy-N-(4-methylpiperazin-1-yl)benzamide]?
**A.** IC50 [1]: < 100 nM; IC50 (Table 3): < 100 nM

**Q.** Which results are given for `COc1cc(C(=O)NN2CCN(C)CC2)ccc1Nc1ncc2c(n1)N(C1CCCC1)CC1(CC1)C(=O)N2C` [Compound 254, 4-(9′-cyclopentyl-5′-methyl-6′-oxo-5′,6′,8′,9′-tetrahydrospiro[cyclopropane-1,7′-pyrimido[4,5-b][1,4]diazepine]-2′-ylamino)-3-methoxy-N-(4-methylpiperazin-1-yl)benzamide]?
**A.** IC50 [1]: < 100 nM; IC50 (Table 3): < 100 nM; Ki (Table 6): < 10 nM

**Q.** With `COc1cc(C(=O)NC2CCN(C3CCOCC3)CC2)ccc1Nc1ncc2c(n1)N(C1CCCC1)CCC(=O)N2C` [Compound 345, 4-(9-Cyclopentyl-5-methyl-6-oxo-6,7,8,9-tetrahydro-5H-pyrimido[4,5-b][1,4]diazepin-2-ylamino)-3-methoxy-N-[1-(tetrahydro-pyran-4-yl)-piperidin-4-yl]-benzamide] as the compound, how does the IC50 [1] read?
**A.** < 100 nM

**Q.** And the IC50 (Table 3)?
**A.** < 100 nM

**Q.** With `COc1cc(C(=O)N[C@H]2CN3CCC2CC3)ccc1Nc1ncc2c(n1)N(C1CCCC1)CC1(CC1)C(=O)N2C` [Compound 347, (R)-4-(9′-cyclopentyl-5′-methyl-6′-oxo-5′,6′,8′,9′-tetrahydrospiro[cyclopropane-1,7′-pyrimido[4,5-b][1,4]diazepine]-2′-ylamino)-3-methoxy-N-(quinuclidin-3-yl)benzamide] as the compound, how does the IC50 [1] read?
**A.** < 100 nM

**Q.** And the IC50 (Table 3)?
**A.** < 100 nM

**Q.** For `COc1cc(C(=O)N[C@@H]2CN3CCC2CC3)ccc1Nc1ncc2c(n1)N(C1CCCC1)CC1(CC1)C(=O)N2C` [Compound 348, (S)-4-(9′-cyclopentyl-5′-methyl-6′-oxo-5′,6′,8′,9′-tetrahydrospiro[cyclopropane-1,7′-pyrimido[4,5-b][1,4]diazepine]-2′-ylamino)-3-methoxy-N-(quinuclidin-3-yl)benzamide], which IC50 [1] is on record?
**A.** < 100 nM

**Q.** And the IC50 (Table 3)?
**A.** < 100 nM

**Q.** How did the IC50 (Table 3) turn out when `COc1cc(C(=O)N[C@H]2CC[C@H](N3CCN(CC4CC4)CC3)CC2)ccc1Nc1ncc2c(n1)N(C1CCCC1)CC1(CC1)C(=O)N2C` [Compound 371, 4-(9′-cyclopentyl-5′-methyl-6′-oxo-5′,6′,8′,9′-tetrahydrospiro[cyclopropane-1,7′-pyrimido[4,5-b][1,4]diazepine]-2′-ylamino)-N-((trans)-4-(4-(cyclopropylmethyl)piperazin-1-yl)cyclohexyl)-3-methoxybenzamide] was run?
**A.** < 100 nM

**Q.** For `CN1CCN(NC(=O)c2ccc(Nc3ncc4c(n3)N(C3CCCC3)CC3(CCC3)C(=O)N4C)c(F)c2)CC1` [Compound 373, 4-(9′-cyclopentyl-5′-methyl-6′-oxo-5′,6′,8′,9′-tetrahydrospiro[cyclobutane-1,7′-pyrimido[4,5-b][1,4]diazepine]-2′-ylamino)-3-fluoro-N-(4-methylpiperazin-1-yl)benzamide], which IC50 (Table 3) is on record?
**A.** < 100 nM

**Q.** How did the IC50 (Table 3) turn out when `CN1CCN(NC(=O)c2ccc(Nc3ncc4c(n3)N(C3CCCC3)CC3(CC3)C(=O)N4C)c(F)c2)CC1` [Compound 374, 4-(9′-Cyclopentyl-5′-methyl-6′-oxo-5′,6′,8′,9′-tetrahydrospiro[cyclopropane-1,7′-pyrimido[4,5-b][1,4]diazepine]-2′-ylamino)-3-fluoro-N-(4-methylpiperazin-1-yl)benzamide] was run?
**A.** < 100 nM

**Q.** How did the IC50 (Table 3) turn out when `COc1cc(C(=O)NN2CCN(CCO)CC2)ccc1Nc1ncc2c(n1)N(C1CCCC1)CC1(CC1)C(=O)N2C` [Compound 375, 4-(9′-Cyclopentyl-5′-methyl-6′-oxo-5′,6′,8′,9′-tetrahydrospiro[cyclopropane-1,7′-pyrimido[4,5-b][1,4]diazepine]-2′-ylamino)-N-(4-(2-hydroxyethyl)piperazin-1-yl)-3-methoxybenzamide] was run?
**A.** < 100 nM

**Q.** For `COc1cc(C(=O)NN2CCOCC2)ccc1Nc1ncc2c(n1)N(C1CCCC1)CC1(CC1)C(=O)N2C` [Compound 376, 4-(9′-Cyclopentyl-5′-methyl-6′-oxo-5′,6′,8′,9′-tetrahydrospiro[cyclopropane-1,7′-pyrimido[4,5-b][1,4]diazepine]-2′-ylamino)-3-methoxy-N-morpholinobenzamide], which IC50 (Table 3) is on record?
**A.** < 100 nM

**Q.** Which IC50 (Table 3) does the source give for `COc1cc(C(=O)N[C@H]2CC[C@H](N3CCN(CC4CC4)CC3)CC2)ccc1Nc1ncc2c(n1)N(C1CCCC1)CC1(CCC1)C(=O)N2C` [Compound 377, 4-(9′-cyclopentyl-5′-methyl-6′-oxo-5′,6′,8′,9′-tetrahydrospiro[cyclobutane-1,7′-pyrimido[4,5-b][1,4]diazepine]-2′-ylamino)-N-((trans)-4-(4-(cyclopropylmethyl)piperazin-1-yl)cyclohexyl)-3-methoxybenzamide] here?
**A.** < 100 nM

**Q.** Which IC50 (Table 3) does the source give for `COc1cc(C(=O)N[C@H]2CC[C@H](N3CCN(CC4CC4)CC3)CC2)ccc1Nc1ncc2c(n1)N(C1CCCC1)CCC(=O)N2C` [Compound 378, 4-(9-cyclopentyl-5-methyl-6-oxo-6,7,8,9-tetrahydro-5H-pyrimido[4,5-b][1,4]diazepin-2-ylamino)-N-((trans)-4-(4-(cyclopropylmethyl)piperazin-1-yl)cyclohexyl)-3-methoxybenzamide] here?
**A.** < 100 nM

**Q.** For `CCN1CCN([C@H]2CC[C@H](NC(=O)c3ccc(Nc4ncc5c(n4)N(C4CCCC4)CC4(CC4)C(=O)N5C)c(OC)c3)CC2)CC1` [Compound 379, 4-(9′-cyclopentyl-5′-methyl-6′-oxo-5′,6′,8′,9′-tetrahydrospiro[cyclopropane-1,7′-pyrimido[4,5-b][1,4]diazepine]-2′-ylamino)-N-((trans)-4-(4-ethylpiperazin-1-yl)cyclohexyl)-3-methoxybenzamide], which IC50 (Table 3) is on record?
**A.** < 100 nM

**Q.** With `CCN1CCN([C@H]2CC[C@@H](NC(=O)c3ccc(Nc4ncc5c(n4)N(C4CCCC4)CC4(CC4)C(=O)N5C)c(OC)c3)CC2)CC1` [Compound 380, 4-(9′-cyclopentyl-5′-methyl-6′-oxo-5′,6′,8′,9′-tetrahydrospiro[cyclopropane-1,7′-pyrimido[4,5-b][1,4]diazepine]-2′-ylamino)-N-((cis)-4-(4-ethylpiperazin-1-yl)cyclohexyl)-3-methoxybenzamide] as the compound, how does the IC50 (Table 3) read?
**A.** < 100 nM

**Q.** How did the IC50 (Table 3) turn out when `COc1cc(C(=O)NC2CCC(N3CCCN(CC4CC4)CC3)CC2)ccc1Nc1ncc2c(n1)N(C1CCCC1)CC1(CC1)C(=O)N2C` (centres unmarked) [Compound 381, 4-(9′-cyclopentyl-5′-methyl-6′-oxo-5′,6′,8′,9′-tetrahydrospiro[cyclopropane-1,7′-pyrimido[4,5-b][1,4]diazepine]-2′-ylamino)-N-(4-(4-(cyclopropylmethyl)-1,4-diazepan-1-yl)cyclohexyl)-3-methoxybenzamide] was run?
**A.** < 100 nM

**Q.** For `CCN1CCCN(C2CCC(NC(=O)c3ccc(Nc4ncc5c(n4)N(C4CCCC4)CC4(CC4)C(=O)N5C)c(OC)c3)CC2)CC1` (centres unmarked) [Compound 382, 4-(9′-cyclopentyl-5′-methyl-6′-oxo-5′,6′,8′,9′-tetrahydrospiro[cyclopropane-1,7′-pyrimido[4,5-b][1,4]diazepine]-2′-ylamino)-N-(4-(4-ethyl-1,4-diazepan-1-yl)cyclohexyl)-3-methoxybenzamide], which IC50 (Table 3) is on record?
**A.** < 100 nM

**Q.** Which IC50 (Table 3) does the source give for `COc1cc(C(=O)NC2CCC(N3CCCN(Cc4ccccc4)CC3)CC2)ccc1Nc1ncc2c(n1)N(C1CCCC1)CC1(CC1)C(=O)N2C` (centres unmarked) [Compound 383, N-(4-(4-benzyl-1,4-diazepan-1-yl)cyclohexyl)-4-(9′-cyclopentyl-5′-methyl-6′-oxo-5′,6′,8′,9′-tetrahydrospiro[cyclopropane-1,7′-pyrimido[4,5-b][1,4]diazepine]-2′-ylamino)-3-methoxybenzamide] here?
**A.** 100 to 1000 nM

**Q.** How did the IC50 (Table 3) turn out when `COc1cc(C(=O)N[C@H]2CC[C@H](N3CCN(C)CC3)CC2)ccc1Nc1ncc2c(n1)N(C1CCCC1)CC1(CC1)C(=O)N2C` [Compound 384, 4-(9′-cyclopentyl-5′-methyl-6′-oxo-5′,6′,8′,9′-tetrahydrospiro[cyclopropane-1,7′-pyrimido[4,5-b][1,4]diazepine]-2′-ylamino)-N-((trans)-4-(4-methylpiperazin-1-yl)cyclohexyl)-3-methoxybenzamide] was run?
**A.** < 100 nM

**Q.** For `COc1cc(C(=O)N[C@H]2CC[C@@H](N3CCN(C)CC3)CC2)ccc1Nc1ncc2c(n1)N(C1CCCC1)CC1(CC1)C(=O)N2C` [Compound 385, 4-(9′-cyclopentyl-5′-methyl-6′-oxo-5′,6′,8′,9′-tetrahydrospiro[cyclopropane-1,7′-pyrimido[4,5-b][1,4]diazepine]-2′-ylamino)-N-((cis)-4-(4-methylpiperazin-1-yl)cyclohexyl)-3-methoxybenzamide], which IC50 (Table 3) is on record?
**A.** < 100 nM

**Q.** Which IC50 (Table 3) does the source give for `COc1cc(C(=O)N[C@H]2CC[C@H](N3CCN(Cc4ccccc4)CC3)CC2)ccc1Nc1ncc2c(n1)N(C1CCCC1)CC1(CC1)C(=O)N2C` [Compound 386, N-((trans)-4-(4-benzylpiperazin-1-yl)cyclohexyl)-4-(9′-cyclopentyl-5′-methyl-6′-oxo-5′,6′,8′,9′-tetrahydrospiro[cyclopropane-1,7′-pyrimido[4,5-b][1,4]diazepine]-2′-ylamino)-3-methoxybenzamide] here?
**A.** < 100 nM
